Measurements from patent publication US20060293383A1, “Carbamate compounds for use in preventing or treating neuropathic pain and cluster and migraine headache-associated pain” (priority 2001, published 2006).

System: Chung model of neuropathic pain
Test: Antiallodynic activity in the Chung model (spinal nerve ligation), manually applied von Frey probes
Format: in vivo, Sprague-Dawley rats
Details: for % Maximum Possible Effect: 30 min after oral dosing (time of peak effect), L5 spinal nerve ligated rats, paw withdrawal threshold
Description: The procedure used to test the antiallodynic activity of an enantiomer of Formula (I) substantially free of other enantiomers was the procedure for the measurement of allodynia found in the Chung Model (Kim S. H. and Chung J. M., An Experimental Model for Peripheral Neuropathy Produced by Segmental Spinal Nerve Ligation in the Rat, Pain, 1992, 50, 355-363).
Evaluation of Antiallodynic Activity (Manually Applied Von Frey Probes) Animals
Pathogen-free, male albino Sprague-Dawley rats, 200 g, were purchased from Harlan Industries (Indianapolis, Ind.) and maintained on a 12-h light/dark cycle (lights on at 06:00 h) in a climate-controlled room with food and water available ad libitum up to the time of the testing and food withdrawn 18 hr prior to testing.
Surgical Procedure and Measurement of Allodynia
The rats were anesthetized with isoflurane inhalant anesthesia. The left lumbar spinal nerve at the level of L5 was tightly ligated (4-0 silk suture) distal to the dorsal root ganglion and prior to entrance into the sciatic nerve, as described by Kim and Chung. The incisions were closed and the rats were allowed to recover under conditions described above. This procedure results in mechanical allodynia in the left hind paw. The sham operation, when performed, consisted of a similar surgical procedure lacking only the final ligation of the spinal nerve. Mechanical (tactile) allodynia was assessed by recording the pressure at which the affected paw (ipsilateral to the site of nerve injury) was withdrawn from graded stimuli (von Frey filaments ranging from 4.0 to 148.1 mN) applied by hand perpendicularly to the plantar surface of the paw (between the footpads) through wire-mesh observation cages. A paw withdrawal threshold (PWT) was determined by sequentially increasing and decreasing the stimulus strength and analyzing withdrawal data using a Dixon non-parametric test, as described by Chaplan et al (Chaplan S. R., Bach F. W., Pogrel J. W., Chung J. M. and Yaksh T. L., Quantitative Assessment of Tactile Allodynia in the Rat Paw, J Neurosci Meth, 1994, 53, 55-63). […]

## NC(=O)OC[C@H](O)c1ccccc1Cl [Formula (Ib)]
30 mg/kg po
  % Maximum Possible Effect: 11%
100 mg/kg po
  % Maximum Possible Effect: 28%
After oral dosing, 30 and 100 mg/kg
  time of peak antiallodynic effect: 30 min
